From ChEMBL document CHEMBL1138112, “Indoloprodigiosins from the C-10 bipyrrolic precursor: new antiproliferative prodigiosin analogs” (Bioorg Med Chem Lett, 2006)

Experiments:
Assay type in all cases: functional, cell-based
Settings in all cases: Homo sapiens
HT-29 = test: Antiproliferative activity against HT29 cell line by MTS assay
DLD-1 = test: Antiproliferative activity against DLD1 cell line by MTS assay
MDA-MB-231 = test: Antiproliferative activity against MDA-MB-231 cell line by MTS assay
NCI-H460 = test: Antiproliferative activity against NCI-H460 cell line by MTS assay
A549 = test: Antiproliferative activity against A549 cell line by MTS assay

| Compound | IC50 (HT-29) [µM] | IC50 (DLD-1) [µM] | IC50 (MDA-MB-231) [µM] | IC50 (NCI-H460) [µM] | IC50 (A549) [µM] |
| --- | --- | --- | --- | --- | --- |
| COc1cc(-c2ccc[nH]2)[nH]c1/C=C1/C=C2CCCCC2=N1 | 0.781 | 0.446 | 1.38 | 0.23 | 0.487 |
| CCC1CCCCCCCCC2=N/C(=C\c3[nH]c(-c4ccc[nH]4)cc3OC)C1=C2 (stereo not given) [METACYCLOPRODIGININE] | 1.7 | 1.78 | 5.21 | 0.33 | 1.25 |
| CCCCCC1=C/C(=C/c2[nH]c(-c3ccc[nH]3)cc2OC)N=C1C [PRODIGIOSIN] | 0.173 | 0.079 | 0.213 | 0.032 | 0.077 |
| COC1=CC(c2ccc[nH]2)=N/C1=C\c1[nH]c(-c2ccc[nH]2)cc1OC | 13.5 | 7.74 | 12.8 | 3.45 | 6.45 |

More lines, now with the values ahead:

| IC50 (HT-29) [µM] | IC50 (DLD-1) [µM] | IC50 (MDA-MB-231) [µM] | IC50 (NCI-H460) [µM] | IC50 (A549) [µM] | Compound |
| --- | --- | --- | --- | --- | --- |
| 12.3 | 16.7 | 23.2 | 10.8 | 14.3 | COc1cc(-c2ccc[nH]2)[nH]c1/C=C1\C(C)=Nc2ccc(C)cc21 |
| 36.2 | 63.2 | 47.4 | 21.6 | 54.6 | COc1cc(-c2ccc[nH]2)[nH]c1/C=C1\C(C)=Nc2ccccc21 |
| 4.68 | 6.02 | 9.35 | 4.06 | 6.61 | COc1cc(-c2ccc[nH]2)[nH]c1/C=C1\C=Nc2ccccc21 |
